The source of these data is patent US9340507B2, “Substituted 4-pyridones and their use as inhibitors of neutrophil elastase activity” (Boehringer Ingelheim International GmbH, priority 2012, dated 2016).

Sequence of Human neutrophil elastase (P08246 30-267): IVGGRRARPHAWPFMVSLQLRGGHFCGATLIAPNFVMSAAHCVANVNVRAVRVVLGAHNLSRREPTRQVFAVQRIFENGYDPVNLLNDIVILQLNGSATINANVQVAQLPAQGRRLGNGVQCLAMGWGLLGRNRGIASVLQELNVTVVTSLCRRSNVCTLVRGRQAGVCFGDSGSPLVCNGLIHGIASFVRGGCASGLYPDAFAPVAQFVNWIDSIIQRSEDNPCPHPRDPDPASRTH

In the experiment the target is Human neutrophil elastase (Homo sapiens (Human), UniProt P08246). In words: Human Neutrophil Elastase Assay. Type of experiment: biochemical. The following applies: substrate MeOSuc-Ala-Ala-Pro-Val-AMC 250 μM, pH 7.5, fluorescence. As to the method:
Human Neutrophil Elastase Assay
All other materials were of the highest grade commercially available.
The following buffers were used: Compound buffer: 100 mM Tris, 500 mM NaCl, adjusted to pH 7.5; Assay buffer: 100 mM Tris, 500 mM NaCl, adjusted to pH 7.5, containing 0.01% BSA.
Assay conditions: Test compounds were prediluted in DMSO and subsequently in compound buffer (5% DMSO final). […] After inactivation of the enzyme, fluorescence intensities were measured at 380 nm excitation and 460 nm emission wavelengths.
Each plate contains wells with a high value control (DMSO+enzyme+substrate) and wells with a low value control (DMSO+inactivated enzyme+substrate). IC50 values were estimated using a sigmoidal concentration response curve with variable slope. Means of low values were taken as 0%, means of high values as 100%. IC50 values of selected compound in the Neutrophil Elastase assay: […]
As usually defined, the IC50 is the point on the concentration scale where inhibition reaches its midpoint. A higher IC50 goes with weaker potency in that assay. For the molecule `Cc1c(-c2cccc(C(F)(F)F)c2)c(=O)c(C(=O)NCc2ccc([S+](C)[O-])cc2)cn1C(C)C` (racemic) [Example 27.1, 1-Isopropyl-6-methyl-4-oxo-5-(3-trifluoromethyl-phenyl)-1,4-dihydro-pyridine-3-carboxylic acid 4-methanesulfinyl-benzylamide], the IC50 turned out to be 9 nM.

On to `Cc1c(-c2cccc(C(F)(F)F)c2)c(=O)c(C(=O)NCc2ccc([S+](C)[O-])cc2)cn1C(C)C` (single isomer, unassigned) [Example 27.1B], for which the IC50 came to 30 nM.

On to `CCn1cc(C(=O)NCc2ccc(S(C)(=O)=O)cc2)c(=O)c(-c2cccc(C(F)(F)F)c2)c1C` [Example 1.1, 1-Ethyl-6-methyl-4-oxo-5-(3-trifluoromethyl-phenyl)-1,4-dihydro-pyridine-3-carboxylic acid 4-methanesulfonyl-benzylamide], for which half-maximal inhibition (IC50) was put at 33 nM.

`Cc1c(-c2cccc(C(F)(F)F)c2)c(=O)c(C(=O)NCc2ccc(S(C)(=O)=O)cc2)cn1C(C)C` [Example 1.2, 1-isopropyl-6-methyl-4-oxo-5-(3-trifluoromethyl-phenyl)-1,4-dihydro-pyridine-3-carboxylic acid 4-methanesulfonyl-benzylamide] returned an IC50 of 12 nM.

For the molecule `CCCn1cc(C(=O)NCc2ccc(S(C)(=O)=O)cc2)c(=O)c(-c2cccc(C(F)(F)F)c2)c1C` [Example 1.3], the IC50 was 28 nM. Compared with the last molecule, the IC50 is about 2.3-fold higher.

`Cc1c(-c2cccc(C(F)(F)F)c2)c(=O)c(C(=O)NCc2ccc(S(C)(=O)=O)cc2)cn1CC1CC1(F)F` (stereo not drawn) [Example 1.7] yielded a concentration for half-maximal inhibition (IC50) of 37 nM.

As to `CCn1cc(C(=O)NCc2ccc(S(C)(=O)=O)cn2)c(=O)c(-c2cccc(C(F)(F)F)c2)c1C` [Example 2.1], 57 nM corresponded to half-maximal inhibition (IC50).

`CCCn1cc(C(=O)NCc2ccc(S(C)(=O)=O)cn2)c(=O)c(-c2cccc(C(F)(F)F)c2)c1C` [Example 2.2]: the midpoint of inhibition, the IC50, lay at 20 nM.

On to `Cc1c(-c2cccc(C(F)(F)F)c2)c(=O)c(C(=O)NCc2ccc(S(C)(=O)=O)cn2)cn1CC(C)C` [Example 2.3], for which half-maximal inhibition (IC50) required 30 nM.

The molecule `Cc1c(-c2cccc(C(F)(F)F)c2)c(=O)c(C(=O)NCc2ccc(S(C)(=O)=O)cn2)cn1CC1CCOC1` (stereo not drawn) [Example 2.4] came in with an IC50 of 73 nM.

The molecule `Cc1nnc(CNC(=O)c2cn(C(C)C)c(C)c(-c3cccc(C(F)(F)F)c3)c2=O)o1` [Example 3.1, 1-Isopropyl-6-methyl-4-oxo-5-(3-trifluoromethyl-phenyl)-1,4-dihydro-pyridine-3-carboxylic acid (5-methyl-[1,3,4]oxadiazol-2-ylmethyl)-amide] registered an IC50 of 38 nM. Against the preceding molecule, the IC50 is about 1.9-fold lower.

The molecule `Cc1c(-c2cccc(C(F)(F)F)c2)c(=O)c(C(=O)NCc2ccncc2)cn1C(C)C` [Example 3.2] registered an IC50 of 97 nM. This IC50 is about 2.6-fold higher than that of the molecule before.

Molecule `Cc1c(-c2cccc(C(F)(F)F)c2)c(=O)c(C(=O)NCc2cccnn2)cn1C(C)C` [Example 3.3] had a 50% inhibitory concentration (IC50) of 90 nM.

`Cc1c(-c2cccc(C(F)(F)F)c2)c(=O)c(C(=O)NCc2cnn(C)c2)cn1C(C)C` [Example 3.4] came in with an IC50 of 62 nM.

In turn, `Cc1c(-c2cccc(C(F)(F)F)c2)c(=O)c(C(=O)NCc2ccc(C#N)cc2)cn1C(C)C` [Example 3.5] yielded an IC50 of 64 nM. This IC50 and that of the molecule before are within 1.5-fold of each other.

In the case of `Cc1c(-c2cccc(C(F)(F)F)c2)c(=O)c(C(=O)NCc2cccc(S(C)(=O)=O)c2)cn1C(C)C` [Example 3.6], half-maximal inhibition (IC50) required 89 nM.

With `Cc1c(-c2cccc(C(F)(F)F)c2)c(=O)c(C(=O)NCc2ccc(S(N)(=O)=O)cc2)cn1C(C)C` [Example 3.7], the IC50 is 40 nM. Against the preceding molecule, the IC50 is about 2.2-fold lower.

As to `Cc1c(-c2cccc(C(F)(F)F)c2)c(=O)c(C(=O)NCc2ccc(N3CCNC3=O)cc2)cn1C(C)C` [Example 3.8], inhibition was half-maximal at 65 nM (IC50).

`Cc1c(-c2cccc(C(F)(F)F)c2)c(=O)c(C(=O)NCc2ccc(CN3CCCC3=O)cc2)cn1C(C)C` [Example 3.9] returned an IC50 of 20 nM.

In the case of `Cc1c(-c2cccc(C(F)F)c2)c(=O)c(C(=O)NCc2cccnn2)cn1C(C)C` [Example 4.1], the IC50 turned out to be 98 nM.

Turning to `Cc1c(-c2cccc(C(F)F)c2)c(=O)c(C(=O)NCc2cnn(C)c2)cn1C(C)C` [Example 4.2], the midpoint of inhibition, the IC50, lay at 60 nM.

Regarding `Cc1nnc(CNC(=O)c2cn(C(C)C)c(C)c(-c3cccc(C(F)F)c3)c2=O)o1` [Example 4.3], inhibition was half-maximal at 27 nM (IC50).

For `Cc1c(-c2cccc(C(F)F)c2)c(=O)c(C(=O)NCc2cccc(=O)[nH]2)cn1C(C)C` [Example 4.4], the 50% inhibitory concentration (IC50) worked out at 72 nM.

The molecule `Cc1c(-c2cccc(C(F)F)c2)c(=O)c(C(=O)NCc2ccc(C#N)cc2)cn1C(C)C` [Example 4.5] had an IC50 of 51 nM.

For `Cc1c(-c2cccc(C(F)F)c2)c(=O)c(C(=O)NCc2cn3ccccc3n2)cn1C(C)C` [Example 4.6], inhibition was half-maximal at 28 nM (IC50).

Turning to `Cc1c(-c2cccc(C(F)F)c2)c(=O)c(C(=O)NCc2ccc3c(cnn3C)c2)cn1C(C)C` [Example 4.7], half-maximal inhibition (IC50) was put at 45 nM.

Take `Cc1c(-c2cccc(C(F)F)c2)c(=O)c(C(=O)NCc2ccc([S+](C)[O-])cc2)cn1C(C)C` (stereo not drawn) [Example 4.8]: the IC50 came to 10 nM.

For the molecule `Cc1c(-c2cccc(C(F)F)c2)c(=O)c(C(=O)NCc2cccc(S(C)(=O)=O)c2)cn1C(C)C` [Example 4.9], the midpoint of inhibition, the IC50, lay at 63 nM. This IC50 is about 6.3-fold higher than that of the molecule before.

As for `Cc1c(-c2cccc(C(F)F)c2)c(=O)c(C(=O)NCc2ccc(S(N)(=O)=O)cc2)cn1C(C)C` [Example 4.10], the midpoint of inhibition, the IC50, lay at 42 nM. This IC50 is about 1.5-fold lower than that of the molecule before.

The molecule `Cc1c(-c2cccc(C(F)F)c2)c(=O)c(C(=O)NCc2ccc(Cn3ccnc3)cc2)cn1C(C)C` [Example 4.11] registered a half-inhibitory concentration (IC50) of 18 nM.

The molecule `Cc1c(-c2cccc(C(F)F)c2)c(=O)c(C(=O)NCc2ccc(N3CCNC3=O)cc2)cn1C(C)C` [Example 4.12] showed an IC50 of 69 nM.

`Cc1c(-c2cccc(C(F)F)c2)c(=O)c(C(=O)NCc2ccc(CN3CCCC3=O)cc2)cn1C(C)C` [Example 4.13]: the IC50 turned out to be 20 nM. This IC50 lies about 3.5-fold lower than the previous one.

`Cc1c(-c2ccnc(C(F)(F)F)c2)c(=O)c(C(=O)NCc2ccc(S(C)(=O)=O)cc2)cn1C(C)C` [Example 5.1, 1-Isopropyl-2-methyl-4-oxo-2′-trifluoromethyl-1,4-dihydro-[3,4]bipyridinyl-5-carboxylic acid 4-methanesulfonyl-benzylamide] registered an IC50 of 72 nM.

As to `Cc1c(-c2ccc(F)c(C(F)(F)F)c2)c(=O)c(C(=O)NCc2ccc(S(C)(=O)=O)cc2)cn1C(C)C` [Example 5.2], the half-inhibitory concentration (IC50) was 19 nM.

Molecule `Cc1c(-c2cc(Cl)cc(C(F)(F)F)c2)c(=O)c(C(=O)NCc2ccc(S(C)(=O)=O)cc2)cn1C(C)C` [Example 5.3] showed an IC50 of 48 nM.

Molecule `Cc1c(-c2ccc(F)c(C(F)F)c2)c(=O)c(C(=O)NCc2ccc(S(C)(=O)=O)cc2)cn1C(C)C` [Example 5.4] returned an IC50 of 61 nM. This IC50 and that of the molecule before are within 1.5-fold of each other.

`Cc1c(-c2cncc(C(F)(F)F)c2)c(=O)c(C(=O)NCc2ccc(S(C)(=O)=O)cc2)cn1C(C)C` [Example 5.5] gave a half-inhibitory concentration (IC50) of 91 nM.

`Cc1c(-c2cccc(C(F)(F)F)c2)c(=O)c(C(=O)NCc2ccc(S(C)(=O)=O)cc2)cn1C1CC1` [Example 6, 1-Cyclopropyl-6-methyl-4-oxo-5-(3-trifluoromethyl-phenyl)-1,4-dihydro-pyridine-3-carboxylic acid 4-methanesulfonyl-benzylamide] came in with an IC50 of 30 nM. This IC50 is about 3-fold lower than that of the molecule before.

For the molecule `Cc1c(-c2cccc(C(F)(F)F)c2)c(=O)c(C(=O)NCc2ccc(S(C)(=O)=O)cc2)cn1C1CCC1` [Example 7, 1-Cyclobutyl-6-methyl-4-oxo-5-(3-trifluoromethyl-phenyl)-1,4-dihydro-pyridine-3-carboxylic acid 4-methanesulfonyl-benzylamide], half-maximal inhibition (IC50) was put at 27 nM.

For the molecule `Cc1nnc(CNC(=O)c2cn(C3CCCC3)c(C)c(-c3cccc(C(F)(F)F)c3)c2=O)o1` [Example 8.1, 1-Cyclopentyl-6-methyl-4-oxo-5-(3-trifluoromethyl-phenyl)-1,4-dihydro-pyridine-3-carboxylic acid (5-methyl-[1,3,4]oxadiazol-2-ylmethyl)-amide], the IC50 stood at 43 nM.

For `Cc1nnc(CNC(=O)c2cn(C3CCCC3)c(C)c(-c3cccc(C(F)F)c3)c2=O)o1` [Example 9.1, 1-Cyclopentyl-5-(3-difluoromethyl-phenyl)-6-methyl-4-oxo-1,4-dihydro-pyridine-3-carboxylic acid (5-methyl-[1,3,4]oxadiazol-2-ylmethyl)-amide], it took 28 nM to reach half-maximal inhibition (IC50).

Molecule `Cc1c(-c2cccc(C(F)F)c2)c(=O)c(C(=O)NCc2ccc(S(C)(=O)=O)cc2)cn1C1CCCC1` [Example 9.2, 1-Cyclopentyl-5-(3-difluoromethyl-phenyl)-6-methyl-4-oxo-1,4-dihydro-pyridine-3-carboxylic acid 4-methanesulfonyl-benzylamide] came in with a half-inhibitory concentration (IC50) of 18 nM. Compared with the last molecule, the IC50 is about 1.6-fold lower.

`CCn1cc(C(=O)NCc2ccc(S(C)(=O)=O)cc2)c(=O)c(-c2cccc(C(F)F)c2)c1C` [Example 10, 5-(3-Difluoromethyl-phenyl)-1-ethyl-6-methyl-4-oxo-1,4-dihydro-pyridine-3-carboxylic acid 4-methanesulfonyl-benzylamide]: half-maximal inhibition (IC50) was put at 29 nM. This IC50 is about 1.6-fold higher than that of the molecule before.

With `CC[C@@H](C)n1cc(C(=O)NCc2ccc(S(C)(=O)=O)cc2)c(=O)c(-c2cccc(C(F)F)c2)c1C` [Example 11.1, (R)-1-sec-Butyl-5-(3-difluoromethyl-phenyl)-6-methyl-4-oxo-1,4-dihydro-pyridine-3-carboxylic acid 4-methanesulfonyl-benzylamide], the IC50 stood at 8 nM.

In the case of `CC[C@@H](C)n1cc(C(=O)NCc2ccc(S(C)(=O)=O)cc2)c(=O)c(-c2ccnc(C(F)(F)F)c2)c1C` [Example 11.2, (R)-1-sec-Butyl-2-methyl-4-oxo-2′-trifluoromethyl-1,4-dihydro-[3,4]bipyridinyl-5-carboxylic acid 4-methanesulfonyl-benzylamide], the IC50 is 35 nM.
